According to patent publication US11731965B2, “Tetrahydroprotoberberine compound, preparation method therefor and uses thereof, and pharmaceutical composition” (SHANGHAI INSTITUTE OF MATERIA MEDICA, CHINESE ACADEMY OF …, priority 2017, dated 2023):
Counter-ions that a name gives are not always drawn.

How the values were obtained:
[1] = target: T1, human recombinant D1 receptor (Homo sapiens, UniProt P21728); assay: D1 antagonistic activity test (LANCE cAMP, antagonism of dopamine-induced cAMP production in HEK293 cells); format: cell-based; settings: HEK293 cells expressing human recombinant D1 receptor; test concentration 0.1 nM to 10000 nM; read-out: D1 Antagonistic Activity (IC50, nmol/L)
T1 construct: expressed in transfected cells; host or cells: HEK293
Procedure: • 1) D1 antagonistic activity test
The D1 antagonism of the compound was evaluated by testing the antagonistic action of the compounds against dopamine on the induction of cAMP production in HEK293 cells. The cAMP concentration test was performed according to the method described in the kit instructions. The test concentration of the compound was 0.1 nM to 10000 nM. SCH23390 was used as a positive control. The IC50 was calculated by Excelfit software.

[2] = target: T2, human recombinant D2 receptor (Homo sapiens, UniProt P14416); assay: D2 antagonistic activity test (LANCE cAMP, antagonism of dopamine inhibition of cAMP production in HEK293 cells); format: cell-based; settings: HEK293 cells expressing human recombinant D2 receptor; test concentration 0.1 nM to 10000 nM; read-out: D2 Antagonistic Activity (IC50, nmol/L)
T2 construct: expressed in transfected cells; host or cells: HEK293
Procedure: LANCE™ cAMP 384 Kit (PerkinElmer, USA) was used to test the antagonism of the compound against the D1 receptor using the HEK293 cells expressing human recombinant D1 receptor. The D1 antagonism of the compound was evaluated by testing the antagonistic action of the compounds against dopamine on the induction of cAMP production in HEK293 cells. The cAMP concentration test was performed according to the method described in the kit instructions. The test concentration of the compound was 0.1 nM to 10000 nM. SCH23390 was used as a positive control. The IC50 was calculated by Excelfit software. The test results of some compounds were shown in Table 1. • 2) D2 antagonistic activity test LANCE™ cAMP 384 Kit (PerkinElmer, USA) was used to test the antagonism of the compound against the D2 receptor using the HEK293 cells expressing human recombinant D2 receptor. The D2 antagonism of the compound was evaluated by testing the antagonistic action of the compounds against dopamine on the inhibition of cAMP production in HEK293 cells. The cAMP concentration test was performed according to the method described in the kit instructions. The test concentration of the compound was 0.1 nM to 10000 nM. Risperidone was used as a positive control. The IC50 was calculated by Excelfit software. The test results of some compounds were shown in Table 1 (ND means the test was not performed).

[3] = target: T3, human recombinant 5-HT1A receptor (Homo sapiens, UniProt P08908); assay: 5-HT1A agonistic activity test (LANCE cAMP, inhibition of cAMP production in HEK293 cells); format: cell-based; settings: HEK293 cells expressing human recombinant 5-HT1A receptor; test concentration 0.1 nM to 10000 nM; read-out: 5-HT1A Agonistic Activity (EC50, nmol/L)
T3 construct: expressed in transfected cells; host or cells: HEK293
T3 sequence (P08908 1-422): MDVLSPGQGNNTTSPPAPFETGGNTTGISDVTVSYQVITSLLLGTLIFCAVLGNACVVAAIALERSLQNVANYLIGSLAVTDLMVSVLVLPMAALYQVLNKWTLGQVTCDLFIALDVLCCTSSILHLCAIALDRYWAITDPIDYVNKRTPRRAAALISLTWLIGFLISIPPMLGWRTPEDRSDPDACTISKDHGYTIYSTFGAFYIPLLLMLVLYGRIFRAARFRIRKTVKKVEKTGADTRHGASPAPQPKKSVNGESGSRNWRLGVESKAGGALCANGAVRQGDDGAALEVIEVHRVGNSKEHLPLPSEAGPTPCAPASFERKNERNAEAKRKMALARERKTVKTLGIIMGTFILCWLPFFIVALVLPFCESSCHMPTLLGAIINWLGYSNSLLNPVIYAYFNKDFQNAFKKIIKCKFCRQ
Procedure: • 3) 5-HT1A agonistic activity test
LANCE™ cAMP 384 Kit (PerkinElmer, USA) was used to test the agonistic effect of the compound on 5-HT1A receptor using the HEK293 cells expressing human recombinant 5-HT1A receptor. The 5-HT1A agonistic effect of the compound was evaluated by testing the inhibitory effect of the compound on cAMP production in HEK293 cells. The cAMP concentration test was performed according to the method described in the kit instructions. The test concentration of the compound was 0.1 nM to 10000 nM. 8-OH-DPAT was used as a positive control. The EC50 was calculated by Excelfit software.

[4] = system: PCP-induced high spontaneous activity in mice; assay: PCP-induced high spontaneous activity test in mice; format: in vivo, Male ICR mice; settings: dose by gavage that significantly reduces PCP (7 mg/kg ip) induced high spontaneous activity of mice vs model group
Procedure: PCP (phencylidine) was dissolved in physiological saline to prepare a 7 mg/kg solution. The test compound was formulated with a 0.5% CMC-Na solution to a solution with suitable concentration, ready-to-use. Male ICR mice were 18-22 g. Mice were randomly divided into a solvent control group, a model control group, a positive control group, and each test drug group during the test. There were 8 mice in each group. Mice in each group were given each test drug by gavage. 45 minutes after the test drug was administered, mice were injected with a PCP (7 mg/kg) solution intraperitoneally. The spontaneous, open field video analysis system was used to record the mouse movement trajectory within 45 min after administration of test drug or saline, and then the mouse movement trajectory within 75 min after PCP administration. Spontaneous, open field video analysis system was used to analyze the mouse's movement trajectory, and the total distance of the movement of the mice in each group was counted. The result was expressed as mean±SD. Results were analyzed by one-way analysis of variance.

T1 sequence (P21728 whole entry): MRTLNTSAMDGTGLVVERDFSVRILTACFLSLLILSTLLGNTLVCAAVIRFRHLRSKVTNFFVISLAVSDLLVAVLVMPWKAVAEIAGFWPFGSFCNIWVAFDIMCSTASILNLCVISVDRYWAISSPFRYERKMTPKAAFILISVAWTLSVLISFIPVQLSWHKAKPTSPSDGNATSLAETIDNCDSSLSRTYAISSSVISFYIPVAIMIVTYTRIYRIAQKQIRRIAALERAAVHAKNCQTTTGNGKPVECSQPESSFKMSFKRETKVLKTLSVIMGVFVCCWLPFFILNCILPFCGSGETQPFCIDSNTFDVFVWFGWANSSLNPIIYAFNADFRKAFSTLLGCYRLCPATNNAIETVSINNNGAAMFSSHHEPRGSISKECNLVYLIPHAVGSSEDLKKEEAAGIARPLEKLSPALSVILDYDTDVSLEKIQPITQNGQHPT
T2 sequence (P14416 whole entry): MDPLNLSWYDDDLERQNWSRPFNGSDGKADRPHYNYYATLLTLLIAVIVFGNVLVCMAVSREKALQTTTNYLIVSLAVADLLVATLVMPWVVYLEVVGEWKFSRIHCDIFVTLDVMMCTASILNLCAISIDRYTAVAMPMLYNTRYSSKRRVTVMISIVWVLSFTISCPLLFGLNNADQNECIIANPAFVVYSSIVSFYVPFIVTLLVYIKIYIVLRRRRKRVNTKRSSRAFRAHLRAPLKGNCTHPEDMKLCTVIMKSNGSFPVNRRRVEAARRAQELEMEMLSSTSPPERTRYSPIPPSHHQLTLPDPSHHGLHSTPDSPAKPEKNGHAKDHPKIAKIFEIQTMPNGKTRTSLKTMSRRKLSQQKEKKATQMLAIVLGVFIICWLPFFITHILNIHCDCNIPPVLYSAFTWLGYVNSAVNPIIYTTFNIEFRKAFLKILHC

SMILES | IC50 [1] [nmol/L] | IC50 [2] [nmol/L] | EC50 [3] [nmol/L] | Effective Dose [4] [mg/kg]
COc1cc2c(cc1C(N)=O)[C@@H]1Cc3ccc(OC)c(OC)c3CN1CC2 [Example 5, (S)-2-carbamoyl-3,9,10-trimethoxy-6,8,13,13a-tetrahydro-5H-dibenzo [a,g] quinolizine] | 170 | 35 | 450 | 10
COc1cc2c(cc1CNC(C)=O)[C@@H]1Cc3ccc(OC)c(OC)c3CN1CC2 [Example 11, (S)-2-acetaminomethyl-3,9,10-trimethoxy-6,8,13,13a-tetrahydro-5H-dibenzo[a,g] quinolizine] | 500 | 750 | 1700 | 10
COc1cc2c(cc1C(C)=O)[C@@H]1Cc3ccc(OC)c(OC)c3CN1CC2 [Example 12, (S)-2-acetyl-3,9,10-trimethoxy-6,8,13,13a-tetrahydro-5H-dibenzo [a,g] quinolizine] | 240 | 500 | 2300 | 
COc1cc2c(cc1NC(C)=O)[C@@H]1Cc3ccc(OC)c(OC)c3CN1CC2 [Example 14, (S)-2-acetamido-3,9,10-trimethoxy-6,8,13,13a4tetrahydro-5H-dibenzo[a,g] quinolizine hydrochloride] |  |  | 514 | 10
COc1cc2c(cc1OC)[C@@H]1Cc3ccc(OC)c(C(C)=O)c3CN1CC2 [Example 21, (S)-2,3,10-trimethoxy-9-acetyl-6,8,13,13a-tetrahydro-5H-dibenzo [a,g] quinolizine] | 1500 |  | 238 | 20
COc1cc2c(cc1OC)[C@@H]1Cc3ccc(OC)c(CNC(C)=O)c3CN1CC2 [Example 23, (S)-2,3,10-trimethoxy-9-acetylaminomethyl-6,8,13,13a-tetrahydro-5H-dibenzo[a,g] quinolizine] |  |  | 1900 | 
COc1cc2c(cc1OC)[C@@H]1Cc3ccc(C#N)c(OC)c3CN1CC2 [Example 27, (S)-2,3,9-trimethoxy-10-cyano-6,8,13,13a-tetrahydro-5H-dibenzo[a,g] quinolizine] | 311 | 1000 | 1200 | 
COc1ccc2c(c1OC)CN1CCc3cc(C#N)c(C#N)cc3C1C2 (stereo not drawn) [Example 35, 2,3-dicyano-9,10-dimethoxy-6,8,13,13a-tetrahydro-5H-dibenzo[a,g] quinolizine] |  |  | 5900 | 
COc1ccc2c(c1OC)CN1CCc3cc4c(cc3C1C2)C(=O)NC4=O (stereo not drawn) [Example 36, 9,10-dimethoxy-5,6,13,13a-tetrahydroisoquinolino[3,2-a]pyrrolo [3,4-g]isoquinoline-1,3(2H,8H)-dione] | 26.2 | 427 |  | 10
COc1cc2c(cc1C#N)[C@@H]1Cc3ccc(C#N)c(OC)c3CN1CC2 [Example 37, (S)-2,10-dicyano-3,9-dimethoxy-6,8,13,13a-tetrahydro-5H-dibenzo [a,g] quinolizine] | 211 | 19 | 3030 | 
COc1cc2c(cc1C(N)=O)[C@@H]1Cc3ccc(C(N)=O)c(OC)c3CN1CC2 [Example 38, (S)-2,10-dicarbamoyl-3,9-dimethoxy-6,8,13,13a-tetrahydro-5H-dibenzo[a,g] quinolizine] | 3400 | 620 | 4580 | 
COc1ccc2c(c1OC)CN1CCc3cc(OC)c4[nH]c(=O)[nH]c4c3[C@@H]1C2 [Example 40, (S)-4,10,11-trimethoxy-3,6,7,9,14,14a-hexahydroimidazo[4,5-h] isoquinolino[3,2-a]isoquinoline-2(1H)-one] | 4 | 27 |  | 20
COc1ccc2c(c1OC)CN1CCc3cc(OC)c4nc[nH]c4c3[C@@H]1C2 [Example 42, (S)-4,10,11-trimethoxy-1,6,7,9,14,14a-hexahydroimidazo[4,5-h] isoquinolino[3,2-a]isoquinoline] | 31.1 | 291 |  | 10
COc1ccc2c(c1OC)CN1CCc3cc4[nH]c(=O)oc4cc3C1C2 (stereo not drawn) [Example 46, 9,10-Dimethoxy-3,5,6,8,13,13a-Hexahydro-2H-isoquinolino[3,2-a] oxazolo[4,5-g]isoquinolin-2-one] | 378 | 184 |  | 10
COc1ccc2c(c1OC)CN1CCc3cc4c(cc3C1C2)OCC(=O)N4 (stereo not drawn) [Example 47, 10,11-Dimethoxy-4,6,7,9,14,14a-Hexahydroisoquinolino[3,2-a][1,4] oxazino[3,2-g]isoquinoline-3(2H)-one] | 19.9 | 146 |  | 10
C=CCOc1cc2c(cc1OC)CCN1Cc3c(ccc(OC)c3OC)C[C@@H]21 [Example 52, (S)-2-allyloxy-3,9,10-trimethoxy-6,8,13,13a-tetahydro-5H-dibenzo [a,g] quinolizine] | 220 | 450 |  | 20
COc1cc2c(cc1OC1CC1)[C@@H]1Cc3ccc(OC)c(OC)c3CN1CC2 [Example 53, (S)-2-cyclopropoxy-3,9,10-trimethoxy-6,8,13,13a-tetrahydro-5H-dibenzo[a,g] quinolizine hydrochloride] | 960 | 1300 |  | 20
COc1cc2c(cc1OC)[C@@H]1Cc3ccc(OC)c(OCCO)c3CN1CC2 [Example 56, (S)-2,3,10-trimethoxy-9-hydroxyethoxy-6.8,13,13a-tetrahydro-5H-dibenzo[a,g] quinolizine] | 1050 | 2800 | 150 | 20
COc1cc2c(cc1OC)[C@@H]1Cc3ccc(OC)c(OC4CC4)c3CN1CC2 [Example 57, (S)-2,3,10-trimethoxy-9-cyclopropoxy-6,8,13,13a-tetrahydro-5H-dibenzo[a,g] quinolizine hydrochloride] |  |  | 110 | 20
